The values below come from patent US4224342A, “Guanidinobenzoic acid compounds and process for preparing the same” (Ono Pharmaceutical Co., Ltd., priority 1977, dated 1980).

The target in one series is T1, trypsin (Bos taurus, UniProt P00760).
T1 sequence (P00760 24-246): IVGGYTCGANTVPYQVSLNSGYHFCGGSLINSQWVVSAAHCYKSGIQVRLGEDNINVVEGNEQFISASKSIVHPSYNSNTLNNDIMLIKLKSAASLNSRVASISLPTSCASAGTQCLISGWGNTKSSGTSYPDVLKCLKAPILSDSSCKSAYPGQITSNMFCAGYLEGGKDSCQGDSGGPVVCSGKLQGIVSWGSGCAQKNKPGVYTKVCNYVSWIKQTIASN
Description: In vitro inhibition of trypsin hydrolysis of p-tosylarginine methyl ester. The format is biochemical. The settings on record: trypsin 0.5 μg, p-tosylarginine methyl ester 20 mM, Tris-HCl pH 8.5, 37° C., 30 minutes; read-out: 50% Inhibition Concentration, Anti-Trypsin.

A further series addresses T2, plasmin (Homo sapiens, UniProt P00747).
T2 construct: from tissue; host or cells: human euglobulin (blood plasma fraction), with streptokinase added
Description: In vitro inhibition of plasmin (human euglobulin, streptokinase, fibrinogen). The format is biochemical. The note with it: fibrinogen 4%, borate saline pH 7.4, 37° C., 30 minutes, read-out: 50% Inhibition Concentration, Anti-Plasmin.

The nature of another series: Acute toxicity in mice. The note with it: mouse, in vivo, route not given.
A short description of a further series: Acute toxicity in rats. The settings on record: rat, in vivo, route and LD50 not given.

T2 sequence (P00747 581-810 limits assumed): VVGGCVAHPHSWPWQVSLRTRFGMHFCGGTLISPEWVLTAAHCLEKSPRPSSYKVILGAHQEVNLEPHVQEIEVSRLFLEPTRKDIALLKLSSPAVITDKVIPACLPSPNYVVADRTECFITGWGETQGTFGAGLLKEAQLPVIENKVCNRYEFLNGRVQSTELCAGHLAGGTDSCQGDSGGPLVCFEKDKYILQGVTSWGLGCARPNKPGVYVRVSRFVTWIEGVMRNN
T2 sequence (P00747 97-580 partner limits assumed): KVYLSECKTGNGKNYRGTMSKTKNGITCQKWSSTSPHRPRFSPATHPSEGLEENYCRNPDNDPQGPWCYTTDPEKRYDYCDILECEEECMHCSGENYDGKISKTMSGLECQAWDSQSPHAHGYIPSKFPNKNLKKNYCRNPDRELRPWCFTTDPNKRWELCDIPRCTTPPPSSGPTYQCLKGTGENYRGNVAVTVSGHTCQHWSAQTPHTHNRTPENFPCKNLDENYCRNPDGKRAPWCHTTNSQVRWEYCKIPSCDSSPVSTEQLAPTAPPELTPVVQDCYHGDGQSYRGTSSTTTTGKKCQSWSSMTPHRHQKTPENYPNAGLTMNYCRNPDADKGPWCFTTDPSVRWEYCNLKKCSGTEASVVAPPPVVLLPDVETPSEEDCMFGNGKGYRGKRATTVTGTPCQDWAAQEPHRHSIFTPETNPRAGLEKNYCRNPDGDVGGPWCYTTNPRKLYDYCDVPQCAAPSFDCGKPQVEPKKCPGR
Description for plasmin: 0.1 ml of human euglobulin (10 fold dilution), 0.1 ml of streptokinase (2000 unit/ml), 0.4 ml of fibrinogen (4% solution), 0.3 ml of a 0.1 M borate saline buffer solution (pH 7.4) and 0.1 ml of a solution of each of the following compounds represented by the formula (I) at various concentrations was allowed to react at a temperature of 37° C. for 30 minutes.

With `COC(=O)Cc1ccc(OC(=O)c2ccc(NC(=N)N)cc2)cc1` [methyl p-(p-guanidinobenzoyloxy)phenyl acetate], the values for the IC50 at trypsin and at plasmin were 0.009 µM and 0.22 µM, respectively.

With `CS(=O)(=O)O.N=C(N)Nc1ccc(C(=O)Oc2ccc(CC(=O)O)cc2)cc1` [4-(4-guanidinobenzoyloxy)phenylacetic acid mesylate], the LD50 in “Acute toxicity in mice” amounted to 4500 mg/kg; in the series “Acute toxicity in rats” it was 4400 mg/kg.

In the case of `N=C(N)Nc1ccc(C(=O)Oc2ccc(CC(=O)O)cc2)cc1` [P-(p-Guanidinobenzoyloxy)phenylacetic Acid], the figures for the IC50 on trypsin and on plasmin were 0.029 µM and 0.25 µM, respectively.

Broadly, the LD50 is the dose at which mortality reaches 50%.
